Measurements taken from US8106050B2, “Derivatives of pyrrolo-pyrazines having a kinase inhibitory activity and their biological applications” (Centre National de la Recherche Scientifique (C.N.R.S.), priority 2002, dated 2012).
Where two headings read alike, the source gives them in different places.

Legend:
CDK1/cyclin B = CDK1/cyclin B kinase assay (histone H1, 15 μM ATP); assay type: biochemical, starfish (Marthasterias glacialis); conditions: for IC50: 15 μM ATP, Table 1
Procedure: (§1) Blank values were subtracted and activities calculated as pmoles of phosphate incorporated for a 10 min. incubation. […] Controls were performed with appropriate dilutions of dimethylsulfoxide. In a few cases phosphorylation of the substrate was assessed by autoradiography after SDS-PAGE.
CDK1/cyclin B was extracted in homogenisation buffer from M phase starfish (Marthasterias glacialis) oocytes and purified by affinity chromatography on p9^CKShs1-sepharose beads, from which it was eluted by free p9^CKShs1. […] ATP (3,000 Ci/mmol; 1 mCi/ml) in a final volume of 30 μl. After 10 min. incubation at 30° C., 25 μl aliquots of supernatant were spotted onto P81 phosphocellulose papers and treated as described above.
(§2) Kinases were assayed as above described in the presence of increasing concentrations of aloisines.

CDK5/p25 = CDK5/p25 (Homo sapiens, UniProt Q00535); assay: CDK5/p25 kinase assay (histone H1, 15 μM ATP); assay type: biochemical, mammalian; conditions: Table 1
Procedure: as §1
CDK5/p25 was reconstituted by mixing equal amounts of recombinant mammalian CDK5 and p25 expressed in E. coli as GST (Glutathione-S-transferase) fusion proteins and purified by affinity chromatography on glutathione-agarose (p25 is a truncated version of p35, the 35 kDa CDK5 activator). Its activity was assayed in buffer C as described for CDK1/cyclin B.
as §2

GSK-3α/β = assay: GSK-3 kinase assay (GS-1 peptide, 15 μM ATP); assay type: biochemical, porcine
Procedure: as §1
GSK-3α/β was either purified from porcine brain or expressed in and purified from insect Sf9 cells. […] ATP (3,000 Ci/mmol; 1 mCi/ml) in a final volume of 30 μl. After 30 min. incubation at 30° C., 25 μl aliquots of supernatant were spotted onto 2.5×3 cm pieces of Whatman P81 phosphocellulose paper, and, 20 sec. later, the filters were washed five times (for at least 5 min. each time) in a solution of 10 ml phosphoric acid/liter of water. The wet filters were counted in the presence of 1 ml ACS (Amersham) scintillation fluid.
as §2

CDK4/cyclin D1 = target: T1, CDK4/cyclin D1 (Homo sapiens, UniProt P11802); assay: Kinase selectivity panel; assay type: biochemical; conditions: 15 μM ATP
T1 construct: made in house
Description: (§5) Other kinases were expressed, purified and assayed as described previously (9), (10).

erk1 = target: T2, erk1 (Homo sapiens, UniProt P27361); assay: Kinase selectivity panel; assay type: biochemical; conditions: 15 μM ATP
T2 construct: made in house
Description: as §5

erk2 = target: T3, erk2 (Homo sapiens, UniProt P28482); assay: Kinase selectivity panel; assay type: biochemical; conditions: 15 μM ATP
T3 construct: made in house
Description: as §5

MAPKK = assay: Kinase selectivity panel; assay type: biochemical; conditions: 15 μM ATP
Description: as §5

c-Jun N-terminal kinase = assay: Kinase selectivity panel; assay type: biochemical; conditions: 15 μM ATP
Description: as §5

protein kinase C η = target: T4, protein kinase C η (Homo sapiens, UniProt P24723); assay: Kinase selectivity panel; assay type: biochemical; conditions: 15 μM ATP
T4 construct: made in house
Description: as §5

Casein kinase 1 = assay: Kinase selectivity panel; assay type: biochemical; conditions: 15 μM ATP
Description: as §5

Casein kinase 2 = assay: Kinase selectivity panel; assay type: biochemical; conditions: 15 μM ATP
Description: as §5

NT2 cells [1] = assay: Cell cycle analysis by flow cytometry; assay type: cell-based, human
Procedure: (§3) Clonal human NT2 teraterocarcinoma cells were obtained from Stratagene (La Jolla, Calif.) and grown in Dulbecco's Modified Eagle Medium: Nutrient Mixture F-12 with 2 mM L-Glutamine (BIO […]) supplemented with 5% FCS and containing penicillin (20 UI/ml) and streptomycin (20 μg/ml) at 37° C., in a humidified atmosphere containing 5% CO2 in air.
(§4) Exponentially growing cells were incubated for 24 h with aloisine A (stock solution dissolved in dimethylsulfoxide). Nocodazole treatment of cells was performed at a concentration of 0.04 μg nocodazole/ml of medium for 24 h. Following the nocodazole treatment, cells were washed twice with fresh medium and cultured with or without aloisine A for 24 h. To perform serum deprivation, cells were maintained in serum-free medium for 40 h. Following serum deprivation, cells were washed twice and cultured in fresh serum-containing medium with or without aloisine A for 40 h.
Cells were trypsinised, collected by centrifugation and fixed in cold 70% ethanol for at least 4 h. Fixed cells were washed in PBS, incubated with 10 μg RNAse A/ml and stained with 25 μg propidium iodide/ml for 1 h at 37° C. The stained cells were then analysed for cell cycle distribution on a FACSort flow cytometer (Becton Dickinson). Cell cycle analyses were performed multiCYCLE (18).
The effect of aloisine A on the cell cycle distribution was investigated for NT2 cells by flow cytometry. Unsynchronised cells (FIG. 4E) were exposed to 20 μM aloisine A for 40 h (FIG. 4F).
The effects of aloisine A on NT2 cells synchronized either in G0/G1 by serum deprivation or in G2/M by nocodazole treatment was also investigated. The results are given on FIG. 4: the cell cycle phase distribution was analysed by flow cytometry following propidium iodide staining. (A, B, C). NT2 cells were synchronized by serum deprivation for […] (A), then cultured for 40 h in fresh medium without (B) or with 20 μM aloisine A (C). (D, E, F). NT2 cells were synchronized by nocodazole treatment ([…]) for 24 h (D), then cultured for 40 h in fresh medium without (E) or with 20 μM aloisine A (F).

NT2 cells [2] = assay: Exponential cell growth of NT2 cells; assay type: cell-based, human; conditions: figure legend FIGS. 4A to 4E
Procedure: as §3, §4
The formazan products were dissolved in DMSO and quantified by measurement of the absorbance at 562 nm.

[3] = target: Insulin receptor tyrosine kinase (Homo sapiens, UniProt P06213); conditions: read-out: IC50 Insulin receptor tyrosine kinase; 15 μM ATP
Description: as §5

[4] = 15 μM ATP, Table 1, read-out: IC50 GSK-3

Sequence of CDK5/p25 (Q00535 whole entry, species assumed): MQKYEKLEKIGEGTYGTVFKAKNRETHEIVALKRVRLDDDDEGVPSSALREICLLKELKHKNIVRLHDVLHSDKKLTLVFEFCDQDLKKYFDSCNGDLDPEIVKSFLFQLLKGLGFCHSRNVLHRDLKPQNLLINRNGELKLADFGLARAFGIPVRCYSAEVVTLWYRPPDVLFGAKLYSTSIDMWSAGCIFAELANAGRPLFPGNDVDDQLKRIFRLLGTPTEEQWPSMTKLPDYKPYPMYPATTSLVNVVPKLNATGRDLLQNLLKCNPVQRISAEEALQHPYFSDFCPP
Sequence of CDK5/p25 (Q15078 99-307 partner limits assumed, species assumed): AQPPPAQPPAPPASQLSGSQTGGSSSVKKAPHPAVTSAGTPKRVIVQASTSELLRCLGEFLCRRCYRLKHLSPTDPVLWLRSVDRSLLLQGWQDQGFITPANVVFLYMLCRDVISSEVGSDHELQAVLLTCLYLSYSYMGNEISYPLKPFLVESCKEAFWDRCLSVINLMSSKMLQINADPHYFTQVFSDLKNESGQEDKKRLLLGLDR
T4 sequence (P24723 whole entry): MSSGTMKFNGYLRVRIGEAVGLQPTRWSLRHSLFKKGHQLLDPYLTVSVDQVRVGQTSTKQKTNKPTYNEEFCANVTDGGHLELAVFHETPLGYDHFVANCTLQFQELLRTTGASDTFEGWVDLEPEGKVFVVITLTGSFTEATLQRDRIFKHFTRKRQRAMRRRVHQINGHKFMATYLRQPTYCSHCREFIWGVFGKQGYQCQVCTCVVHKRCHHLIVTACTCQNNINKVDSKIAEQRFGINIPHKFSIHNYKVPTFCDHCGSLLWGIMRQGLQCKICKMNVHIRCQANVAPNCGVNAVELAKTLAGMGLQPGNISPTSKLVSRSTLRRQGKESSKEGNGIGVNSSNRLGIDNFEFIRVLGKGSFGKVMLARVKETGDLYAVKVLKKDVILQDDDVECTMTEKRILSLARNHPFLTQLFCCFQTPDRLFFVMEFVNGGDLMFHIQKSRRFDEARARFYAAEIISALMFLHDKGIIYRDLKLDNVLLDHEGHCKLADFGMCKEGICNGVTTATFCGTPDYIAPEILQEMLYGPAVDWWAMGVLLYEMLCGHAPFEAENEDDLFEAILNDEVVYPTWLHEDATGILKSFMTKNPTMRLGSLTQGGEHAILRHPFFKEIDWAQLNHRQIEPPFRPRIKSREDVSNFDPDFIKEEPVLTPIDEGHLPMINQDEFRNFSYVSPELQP
T1 sequence (P11802 whole entry, species assumed): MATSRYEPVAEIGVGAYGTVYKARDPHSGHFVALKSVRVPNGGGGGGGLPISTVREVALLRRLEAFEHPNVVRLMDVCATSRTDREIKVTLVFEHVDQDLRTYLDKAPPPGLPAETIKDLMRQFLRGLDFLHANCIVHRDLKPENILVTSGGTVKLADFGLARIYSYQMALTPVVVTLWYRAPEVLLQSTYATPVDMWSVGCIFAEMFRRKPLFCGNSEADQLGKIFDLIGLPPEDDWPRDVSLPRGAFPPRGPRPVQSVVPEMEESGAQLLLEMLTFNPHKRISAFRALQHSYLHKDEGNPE
T1 sequence (P24385 whole entry partner, species assumed): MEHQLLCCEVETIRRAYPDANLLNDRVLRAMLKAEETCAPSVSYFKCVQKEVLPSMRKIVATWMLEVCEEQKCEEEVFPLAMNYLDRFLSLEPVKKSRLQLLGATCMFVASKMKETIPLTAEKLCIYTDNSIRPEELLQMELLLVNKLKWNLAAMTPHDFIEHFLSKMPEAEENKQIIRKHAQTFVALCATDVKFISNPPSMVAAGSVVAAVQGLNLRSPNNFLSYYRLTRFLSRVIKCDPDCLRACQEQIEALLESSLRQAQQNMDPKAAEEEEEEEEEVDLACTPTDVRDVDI
Sequence of Insulin receptor tyrosine kinase (P06213 28-1382): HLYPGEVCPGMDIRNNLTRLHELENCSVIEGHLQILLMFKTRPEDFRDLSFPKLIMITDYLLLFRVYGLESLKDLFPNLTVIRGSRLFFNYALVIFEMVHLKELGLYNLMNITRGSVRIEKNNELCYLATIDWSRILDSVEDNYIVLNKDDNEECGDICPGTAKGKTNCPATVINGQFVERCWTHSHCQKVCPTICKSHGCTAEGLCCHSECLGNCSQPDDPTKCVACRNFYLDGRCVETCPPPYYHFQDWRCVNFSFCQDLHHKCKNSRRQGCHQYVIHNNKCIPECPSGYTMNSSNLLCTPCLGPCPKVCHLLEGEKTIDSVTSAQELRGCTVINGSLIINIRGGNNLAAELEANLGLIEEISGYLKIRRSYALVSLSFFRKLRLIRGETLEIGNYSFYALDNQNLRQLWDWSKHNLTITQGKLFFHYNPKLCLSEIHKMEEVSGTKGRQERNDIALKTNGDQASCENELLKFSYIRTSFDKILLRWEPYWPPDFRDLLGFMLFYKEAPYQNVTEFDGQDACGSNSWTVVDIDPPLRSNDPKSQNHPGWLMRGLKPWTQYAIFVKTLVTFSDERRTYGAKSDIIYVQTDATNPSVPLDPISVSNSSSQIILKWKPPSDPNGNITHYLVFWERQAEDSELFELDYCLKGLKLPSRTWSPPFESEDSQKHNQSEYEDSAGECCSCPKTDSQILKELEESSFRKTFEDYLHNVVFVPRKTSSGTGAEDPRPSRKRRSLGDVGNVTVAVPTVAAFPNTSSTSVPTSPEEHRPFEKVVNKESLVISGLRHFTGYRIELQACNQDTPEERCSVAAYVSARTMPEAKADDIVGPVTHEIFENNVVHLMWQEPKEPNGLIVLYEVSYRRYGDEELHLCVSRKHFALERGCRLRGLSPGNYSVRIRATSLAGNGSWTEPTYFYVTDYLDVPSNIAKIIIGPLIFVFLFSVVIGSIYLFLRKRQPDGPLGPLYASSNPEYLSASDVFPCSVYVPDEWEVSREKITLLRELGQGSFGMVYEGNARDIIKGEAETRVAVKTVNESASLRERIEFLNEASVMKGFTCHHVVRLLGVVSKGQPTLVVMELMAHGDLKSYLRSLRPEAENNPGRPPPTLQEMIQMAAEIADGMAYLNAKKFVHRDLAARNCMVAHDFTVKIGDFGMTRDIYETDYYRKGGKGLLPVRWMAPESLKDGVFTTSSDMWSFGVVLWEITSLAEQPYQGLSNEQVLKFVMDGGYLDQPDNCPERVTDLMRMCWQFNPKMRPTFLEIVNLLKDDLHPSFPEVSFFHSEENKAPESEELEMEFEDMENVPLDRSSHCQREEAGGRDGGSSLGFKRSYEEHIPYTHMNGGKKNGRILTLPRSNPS
T2 sequence (P27361 whole entry, species assumed): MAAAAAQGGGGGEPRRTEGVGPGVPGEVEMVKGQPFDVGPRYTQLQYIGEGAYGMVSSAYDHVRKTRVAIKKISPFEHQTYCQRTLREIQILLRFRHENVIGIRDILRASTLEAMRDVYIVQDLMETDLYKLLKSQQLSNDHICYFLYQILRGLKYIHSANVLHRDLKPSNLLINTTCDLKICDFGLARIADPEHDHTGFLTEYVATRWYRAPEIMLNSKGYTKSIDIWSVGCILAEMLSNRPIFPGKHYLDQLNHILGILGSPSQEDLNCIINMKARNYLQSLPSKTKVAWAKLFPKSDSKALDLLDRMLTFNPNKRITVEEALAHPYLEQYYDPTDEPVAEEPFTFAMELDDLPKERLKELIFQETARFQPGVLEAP
T3 sequence (P28482 whole entry, species assumed): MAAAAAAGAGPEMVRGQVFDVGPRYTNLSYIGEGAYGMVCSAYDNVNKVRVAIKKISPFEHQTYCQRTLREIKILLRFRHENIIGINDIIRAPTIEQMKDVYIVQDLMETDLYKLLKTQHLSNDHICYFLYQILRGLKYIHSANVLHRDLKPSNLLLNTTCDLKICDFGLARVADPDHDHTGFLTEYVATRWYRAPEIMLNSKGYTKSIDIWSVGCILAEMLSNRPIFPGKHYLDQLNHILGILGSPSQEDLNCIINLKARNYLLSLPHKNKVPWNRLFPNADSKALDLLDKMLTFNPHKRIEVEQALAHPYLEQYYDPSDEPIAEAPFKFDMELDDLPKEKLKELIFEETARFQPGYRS

| SMILES | IC50 (CDK1/cyclin B) | IC50 (CDK5/p25) | IC50 (GSK-3α/β; [4]) | melting point | also measured |
| --- | --- | --- | --- | --- | --- |
| COc1ccc(-c2cc3nccnc3[nH]2)cc1 [14 (RP11), 6-(4-Methoxyphenyl)[5H]pyrrolo[2,3-b]pyrazine] | 2 µM | 4 µM | 1.1 µM | 256.1 °C (dec.) | – |
| Clc1cc(Cl)cc(-c2cc3nccnc3[nH]2)c1 [20 (RP15), 6-(3,5-Dichlorophenyl)[5H]pyrrolo[2,3-b]pyrazine] | > 100 µM | > 100 µM | > 100 µM | 252 °C (dec.) | – |
| FC(F)(F)c1ccc(-c2cc3nccnc3[nH]2)cc1 [22 (RP8), 6-(4-Trifluoromethylphenyl)[5H]pyrrolo[2,3-b]pyrazine] | 6 µM | > 100 µM | 7.2 µM | 238 °C (dec.) | – |
| CN(C)c1ccc(-c2cc3nccnc3[nH]2)cc1 [26 (RP129), 6-(4-Dimethylaminophenyl)[5H]pyrrolo[2,3-b]pyrazine] | 20 µM | > 100 µM | 12 µM | 271 °C (dec.) | – |
| CCCCc1c(-c2ccc(O)cc2)[nH]c2nccnc12 [39 (RP107)] | – | – | – | – | Mechanism of inhibition versus ATP, CDK1/cyclin B (CDK1/cyclin B; ATP 0.1 to […], histone H1 0.7 mg/ml, double reciprocal plots): competitive inhibitor for ATP; IC50 (GSK-3α/β; text summary of selectivity, read-out: IC50 GSK-3α/β): […]; IC50 (CDK4/cyclin D1): > 100 µM; IC50 (erk1): 18 µM; IC50 (erk2): 22 µM; IC50 (MAPKK): > 100 µM; IC50 (c-Jun N-terminal kinase): 3.3 to 10 µM; IC50 (protein kinase C η): > 100 µM; IC50 (Casein kinase 1): > 100 µM; IC50 (Casein kinase 2): > 100 µM; Cell cycle distribution, unsynchronised cells (NT2 cells [1]; NT2 cells, 20 μM for 40 h): accumulation in G2/M phase; Cell cycle distribution after G2/M synchronisation by nocodazole (NT2 cells [1]; NT2 cells, 20 μM for 40 h after nocodazole withdrawal): remained in G2/M; Cell cycle distribution after G0/G1 synchronisation by serum deprivation (NT2 cells [1]; NT2 cells, serum-enriched medium with 20 μM for 40 h): remained essentially in G0/G1; Signs of apoptosis (NT2 cells [1]; unsynchronised NT2 cells, 20 μM for 40 h): No signs of apoptosis were detectable; Exponential cell growth (NT2 cells [2]): reversible inhibition of exponential cell growth; IC50 [3]: 60 µM |
| CCCCc1c(-c2ccc(Cl)cc2)[nH]c2nccnc12 [40 (RP108), 7-n-Butyl-6-(4-chlorophenyl)[5H]pyrrolo[2,3-b]pyrazine] | 0.2 µM | > 100 µM | 5.9 µM | 200 °C | – |
| CCCCCCCc1c(-c2ccc(OC)cc2)[nH]c2nccnc12 [41 (RP111), 7-n-Heptyl-6-(4-methoxyphenyl)[5H]pyrrolo[2,3-b]pyrazine] | 7 µM | > 100 µM | > 10 µM | 132.5 °C | – |
| c1ccc(Cc2c(-c3ccccc3)[nH]c3nccnc23)cc1 [44 (RP92), 7-Benzyl-6-phenyl[5H]pyrrolo[2,3-b]pyrazine] | 2 µM | > 100 µM | 1 µM | 209.8 °C | – |
